Entries after “also recorded” stand apart in the source; their conditions may differ. Read-outs that look alike come from different tables or passages of the source.
Experiments:
[1] = test system: Candida biofilms; test: Minimum biofilm eradication concentration assay, Candida spp.; type: cell-based; conditions: sessile (biofilm) Candida
Description: (§1) Biofilm formation and measurement of antimicrobial sensitivity of Candida and Aspergillus biofilms were performed using an assembly of the present invention. The device features a microtliter plate lid with 96 pegs or projections distributed on the lid. Each peg provided the surface for microorganism to adhere, colonize and form a uniform biofilm. The pegs fit precisely into the wells of a standard 96-well microtiter plate. The lid was used in conjunction with a base having special troughs for growing, washing, and incubating fungi. Colonies of Candida sp. were picked from 24 hour cultures on Sabouraud Dextrose agar (SDA) (BBL Microbiological Systems, Cockeysville, Md.) and placed into Mueller-Hinton Broth (MHB) (Difco Laboratories, Detroit Mich.) such that the suspension matched a McFarland standard of 1.0. This suspension was then diluted 1:30 in MHB, and 25 ml were pipetted into the trough chamber of the base. The closed assembly (lid with pegs positioned on the base) was placed on a Hoeffer Red Rocker (VWR, Scientific) set to rock the plates 3.5 cycles per minute in a 37° C. incubator. C. albicans and C. tropicalis were incubated aerobically, while C. glabrata was incubated in 10% CO2. It was determined in preliminary experiments that C. glabrata required 10% CO2 atmosphere for biofilms to form.
(§2) Biofilm susceptibility testing uses the pegged lid of the assembly, now containing biofilms formed after rocking in the tray for 24 hour. Each peg on the lid was gently washed once in […] of phosphate buffered saline solution (PBSS) in a 96-well microtiter plate (Falcon). The pegged lid was then transferred to another 96 well microtiter plate containing 2 fold dilutions antifungal agent in 200 μl of RPMI 1640 (Sigma, St. Louis, Mo.) or RPMI 1640 containing 1% DMSO (see test drug section). After the pegs were exposed to the drugs for 24 hours, the pegged lid was removed and gently rinsed twice in saline. The pegged lid was then placed on a 96 well plate containing RPMI 1640 recovery medium. The pegs were sonicated for 5 minutes (Candida spp.) or 7 minutes (Aspergillus) in an ultrasonicator to dislodge adherent cells into the recovery medium. Aliquots of 20 μl of the recovery medium were spot plated on SDA (Candida spp) or Rose Bengal Agar (A. fumigatus) to obtain the MBEC. The assembly was also used to determine the minimum inhibitory concentration (MIC) and minimum fungicidal concentration (MFC). The turbidity of the wells that contained the antibiotic and planktonic cells which were shed from the biofilm was measured at […] to obtain the MIC. A 20 μl sample from each well was also spot plated onto Sabouraud Dextrose agar (Candida spp) or Rose Bengal Agar (A. fumigatus) to obtain the MFC.
Drugs tested. […]

[2] = test system: planktonic cultures of C. albicans; test: Planktonic sensitivity (MIC, MFC) of C. albicans to antifungal agents; type: cell-based, Candida albicans
Description: as §2
Minimum Inhibitory Concentrations (MIC) and Minimum Fungicidal Concentrations (MFC) were determined according to the guidelines of the National Committee for Clinical laboratory Standards (NCCLS). Briefly, Candida sp. were maintained on polystyrene spheres at −70° C. until plating. […]
(§3) The test wells were then incubated at 37° C. for 24 hours with the antifungal drugs. MICs for Candida were obtained after incubation by reading the turbidity at 650 nm on a microtiter plate reader (Softmax, VWR). […] MFCs were determined for Aspergillus by plating 100 μl from each well onto Rose Bengal Agar, followed by spreading with a sterile glass spreader. […]

[3] = test system: C. tropicalis planktonic cells; test: Planktonic sensitivity (MIC) of C. tropicalis to antifungal agents; type: cell-based, Candida tropicalis; conditions: C. tropicalis strain tested
Description: Biofilm susceptibility testing uses the pegged lid of the assembly, now containing biofilms formed after rocking in the tray for 24 hour. Each peg on the lid was gently washed once in […] of phosphate buffered saline solution (PBSS) in a 96-well microtiter plate (Falcon). The pegged lid was then transferred to another 96 well microtiter plate containing 2 fold dilutions antifungal agent in 200 μl of RPMI 1640 (Sigma, St. Louis, Mo.) or RPMI 1640 containing 1% DMSO (see test drug section). After the pegs were exposed to the drugs for 24 hours, the pegged lid was removed and gently rinsed twice in saline. The pegged lid was then placed on a 96 well plate containing RPMI 1640 recovery medium. […] The turbidity of the wells that contained the antibiotic and planktonic cells which were shed from the biofilm was measured at […] to obtain the MIC. […]
Minimum Inhibitory Concentrations (MIC) and Minimum Fungicidal Concentrations (MFC) were determined according to the guidelines of the National Committee for Clinical laboratory Standards (NCCLS). […]
as §3

[4] = test system: Pseudomonas aeruginosa (Ps) biofilm; test: MBEC assay, Ps biofilms exposed to antibiotics and combinations (Example 5); type: cell-based; conditions: number of the 12 isolates from Cystic Fibrosis patients that are resistant; 24 hours exposure
[5] = test system: Staphylococcus aureus biofilm; test: Staphylococcus test plate, biofilm sensitivity (Example 9); type: cell-based; conditions: figure in the label = antibiotic concentration, breakpoint concentrations
[6] = test system: Pseudomonas aeruginosa (Ps) planktonic bacteria; test: MBEC assay, Ps planktonic bacteria exposed to antibiotics and combinations (Example 5); type: cell-based; conditions: number of the 12 isolates from Cystic Fibrosis patients that are resistant; 24 hours exposure
[7] = test system: Staphylococcus aureus (Staph) planktonic bacteria; test: MBEC assay, Staph planktonic bacteria exposed to antibiotics and combinations (Example 5); type: cell-based; conditions: number of the 12 isolates from device associated infections that are resistant; 24 hours exposure
[8] = test system: Staphylococcus aureus planktonic forms; test: Staphylococcus test plate, planktonic sensitivity (Example 9); type: cell-based; conditions: figure in the label = antibiotic concentration, breakpoint concentrations
[9] = test system: P. aeruginosa biofilm; test: P. aeruginosa biofilm assay kit, biofilm MBEC read on recovery plate (Example 8); type: cell-based, Pseudomonas aeruginosa; conditions: challenge 35° C. for 24 hours; recovery 20 to 24 hours; breakpoint concentrations
[10] = test system: Staphylococcus aureus (Staph) biofilm; test: MBEC assay, Staph biofilms exposed to antibiotics and combinations (Example 5); type: cell-based; conditions: number of the 12 isolates from device associated infections that are resistant; 24 hours exposure
[11] = test system: P. aeruginosa planktonic bacteria shed from the biofilm; test: P. aeruginosa biofilm assay kit, planktonic MIC read on challenge plate (Example 8); type: cell-based, Pseudomonas aeruginosa; conditions: challenge 35° C. for 24 hours; breakpoint concentrations
[12] = test system: biofilm cells of C. albicans; test: Minimum biofilm eradication concentration assay, C. albicans; type: cell-based, Candida albicans; conditions: 24 hours exposure
Description: as §1, with “The closed assembly (lid with pegs positioned on the base) was placed on a Hoeffer Red Rocker (VWR, Scientific) set to rock the plates 3.5 cycles per minute in a 37° C. incubator. C. albicans and C. tropicalis were incubated aerobically, while C. glabrata was incubated in 10% CO2.” left out
Biofilm susceptibility testing uses the pegged lid of the assembly, now containing biofilms formed after rocking in the tray for 24 hour. […] The turbidity of the wells that contained the antibiotic and planktonic cells which were shed from the biofilm was measured at […] to obtain the MIC. […]

[13] = test system: invasive pulmonary, sinus and cerebral aspergillosis; conditions: cited from earlier work
[14] = planktonic cultures of C. albicans, 24 hours

## C[C@@H]1[C@H](O)[C@@H](C)/C=C/C=C/CC/C=C/C=C/C=C/C=C/C(O[C@H]2O[C@H](C)[C@@H](O)[C@H](N)[C@@H]2O)CC2O[C@](O)(CC(O)C(O)CCC(O)CC(O)CC(O)CC(=O)O[C@H]1C)CC(O)C2C(=O)O (some centres unmarked) [nystatin, Nystatin]
[1]
  effectiveness against Candida growing as a biofilm: effective; also recorded: most effective

## OC(Cn1cncn1)(Cn1cncn1)c1ccc(F)cc1F [fluconazole, Fluconazole]
[2]; C. albicans strain tested, planktonic
  classification by MIC criterion (MIC less than or equal to 8 μg/ml = susceptible): susceptible
[3]
  classification by MIC criterion (MIC less than or equal to 8 μg/ml = susceptible): susceptible

## gentamicin [GM]
[4]
  Ps resistance to individual antibiotics and antibiotic combinations, Biofilm: 12
[5]; listed as GM2
  Number of Staphylococcus aureus isolates resistant to individual antibiotics and antibiotic combinations, Biofilm: 11
[5]; listed as GM4
  Number of Staphylococcus aureus isolates resistant to individual antibiotics and antibiotic combinations, Biofilm: 10
[6]
  Ps resistance to individual antibiotics and antibiotic combinations, Planktonic: 8
[7]
  Staph resistance to individual antibiotics and antibiotic combinations, Planktonic: 6
[8]; listed as GM2
  Number of Staphylococcus aureus isolates resistant to individual antibiotics and antibiotic combinations, Planktonic: 4
[8]; listed as GM4
  Number of Staphylococcus aureus isolates resistant to individual antibiotics and antibiotic combinations, Planktonic: 3
[9]
  Number of P. aeruginosa isolates resistant to individual antibiotics and antibiotic combinations, Biofilm: 12
[10]
  Staph resistance to individual antibiotics and antibiotic combinations, Biofilm: 10
[11]
  Number of P. aeruginosa isolates resistant to individual antibiotics and antibiotic combinations, Planktonic: 8

## Colistin [CLO]
[4]
  Ps resistance to individual antibiotics and antibiotic combinations, Biofilm: 12
[6]
  Ps resistance to individual antibiotics and antibiotic combinations, Planktonic: 2
[9]
  Number of P. aeruginosa isolates resistant to individual antibiotics and antibiotic combinations, Biofilm: 12
[11]
  Number of P. aeruginosa isolates resistant to individual antibiotics and antibiotic combinations, Planktonic: 2

## Polymyxin B
[1]
  effectiveness against Candida growing as a biofilm: ineffective

## COC1=CC(=O)C[C@@H](C)[C@]12Oc1c(Cl)c(OC)cc(OC)c1C2=O [Griseofulvin]
[1]
  effectiveness against Candida growing as a biofilm: ineffective

## C[C@@H]1[C@H](O)[C@@H](C)/C=C/C=C/C=C/C=C/C=C/C=C/C=C/[C@H](O[C@@H]2O[C@H](C)[C@@H](O)[C@H](N)[C@@H]2O)C[C@@H]2O[C@](O)(C[C@@H](O)C[C@@H](O)[C@H](O)CC[C@@H](O)C[C@@H](O)CC(=O)O[C@H]1C)C[C@H](O)[C@H]2C(=O)O [amphotericin B, Amphotericin B]
[12]
  average concentration required to kill biofilm cells (MBEC): 12 µg/mL
[1]
  effectiveness against Candida growing as a biofilm: most effective
[2]; [14]
  average MFC: 0.02 µg/mL
  average MIC: 0.09 µg/mL
[13]; invasive cerebral aspergillosis
  crude mortality rate of treated patients: 99%
[13]; invasive pulmonary aspergillosis
  crude mortality rate of treated patients: 86%
[13]; invasive sinus aspergillosis
  crude mortality rate of treated patients: 66%

— US20080318269A1, “Devices and Methods for the Analysis of Biofilm” (priority 2005, published 2008)
